Data: patent US9884065B2, “Inhibiting activity of senescent cells using a glucocorticoid” (Buck Institute for Research on Aging, priority 2011, dated 2018)
Entries after “also recorded” stand apart in the source; their conditions may differ.

Legend:
senescent cells [1] = experiment: Doxorubicin-induced senescent cells in tissues of p16-3MR mice (mRFP and p16INK4a mRNA); assay type: in vivo, mouse; conditions: doxorubicin 10 mg/kg vs untreated control mice
Description: Similar results were observed when the senescent cell accumulation was induced with the chemotherapeutic agent, doxorubicin. […] Various tissues were isolated (liver, heart, lung, kidney, and spleen) and measured for abundance of mRNAs encoding mRFP and p16INK4a as markers for senescent cells (see FIGS. 5A and 5B, respectively).

B16 mouse melanoma cells [2] = experiment: Subcutaneous B16 melanoma in doxorubicin-treated p16-3MR mice; assay type: in vivo; conditions: for p16INK4a and mRFP expression in skin biopsies / tumor diameters: doxorubicin 10 mg/kg with or without GCV; for tumor diameters / growth/size of subcutaneous B16 melanoma tumors: 12 days after B16 injection; for growth/size of subcutaneous B16 melanoma tumors: doxorubicin 10 mg/kg, GCV 25 mg/kg daily for 7 days starting 7 days later
Experimental: Briefly, p16-3MR transgenic mice were treated with vehicle (ctrl) or 10 mg/kg doxorubicin. Seven days after doxorubicin treatment, mice were treated daily with GCV (25 mg/kg) for 7 days or vehicle only. 3 days after the last GCV treatment, 4×10^5 B16 mouse melanoma cells were injected subcutaneously into the p16-3MR transgenic mice, and mice were sacrificed after 12 days for analysis.

IL-6 [3] = experiment: Initial drug screen (Prestwick Chemical Library), IL-6 ELISA of medium; assay type: cell-based, human; conditions: 2.5 μM, 48 hours, HCA2 fibroblasts, 0.2% serum
Experimental: The initial drug screen was performed in a 96-well format using automated liquid handling with a Biomek FX (Beckman Coulter, CA). Senescent cells were plated 24 hours after X-irradiation at 7,500 cells per well in 96-well plates. Six days after plating the senescent cells, the pre-senescent cells were plated at 7,500 cells per well in 96-well plates. Twenty-four hours after pre-senescent plating, both pre-senescent and senescent cells were washed and incubated in low (0.2%) serum for 48 hours to arrest cell proliferation of the pre-senescent cells. […] Forty-eight hours after compound addition, the medium in each well was removed and frozen for assay by ELISA to quantitate the levels of IL-6. The cells, which remained in the wells after the medium was removed, were lysed and ATP levels were measured (ATPlite 1-step assay, Perkin Elmer, MA) to exclude compounds that lowered IL-6 through toxicity (cell death). Experimental wells in each plate were normalized to plate mean or same-plate DMSO controls for the ELISA and ATP assays, respectively.
To identify small molecules that may be potential SASP modulators, a screening strategy that entailed administering compounds to parallel 96-well plates containing human fibroblasts (strain HCA2) that were either quiescent or senescent was developed. […] After 48 hours, the medium from each well was removed, and the cells were lysed. […] Cell lysates were assayed for ATP as a surrogate for cell number.

NF-κB = NF-κB reporter-luciferase transactivation assay; assay type: cell-based, human; conditions: 0.5 μM RU-486 or 2.5 ng mL^−1 IL-1α
Experimental: Nuclear extracts were prepared using the nuclear extract kit (Active Motif), and NF-κB DNA binding was determined using the TransAM NF-κB p65 kit (Active Motif). For transactivation assays, cells infected with the NF-κB reporter-luciferase lentivirus were lysed in buffer (Promega), and luciferase activity was normalized to cell number, as described (Freund et al., 2011, EMBO J. 30:1536-1548).

IL-6 [4] = experiment: IL-6 ELISA of conditioned media from X-irradiated senescent HCA2 fibroblasts; assay type: cell-based, human; conditions: 50 nM corticosterone or 100 nM cortisol; rIL-1α given six days after irradiation, 24 hours
Experimental: To validate glucocorticoids as SASP regulators, they were added within 15 min after irradiation (unless otherwise indicated). For cells induced to senesce by MKK6 or RAS overexpression, glucocorticoid treatment started 16 hours after infection. Glucocorticoids were re-added in fresh media every other day. Six days after irradiation or selection, cells were given serum-free DMEM with or without glucocorticoid for 24 hours; the conditioned media were collected and frozen for ELISAs.
Conditioned media were filtered and stored at −80° C. Cell numbers were determined in every experiment. ELISAs were performed using kits and procedures from PerkinElmer (IL-6 AL223F). Data were normalized and expressed as pg/ml/cell/24 h.
To confirm the ability of corticosterone to suppress senescence-associated IL-6 secretion, fresh HCA2 fibroblast cultures were prepared, and senescence was induced by X-irradiation (10 Gy). Under these conditions, cells undergo growth arrest within 24-48 hours, but require 4-5 days before SASP components are detected in the medium (Coppe et al., 2008, PLoS Biol. 6:2853-2868; Rodier et al., 2009, Nature Cell Biol. 11:973-979; Coppe et al., 2010, PLoS ONE 5:e9188; Freund et al., 2011, EMBO J. 30:1536-1548). Varying concentrations of corticosterone were added immediately after irradiation, and the cells were maintained in the drug for 6 days. On the 6th day, the cells were incubated in serum-free medium with or without corticosterone, the conditioned medium was collected 24 h later, and the medium was assayed for IL-6 by ELISA. […] The ability of corticosterone to suppress IL-6 secretion by senescent cells was not peculiar to HCA2 cells.

HCA2 human fibroblasts = conditions: 2.5 μM, 48 hours
Experimental: The initial drug screen was performed in a 96-well format using automated liquid handling with a Biomek FX (Beckman Coulter, CA). Senescent cells were plated 24 hours after X-irradiation at 7,500 cells per well in 96-well plates. Six days after plating the senescent cells, the pre-senescent cells were plated at 7,500 cells per well in 96-well plates. Twenty-four hours after pre-senescent plating, both pre-senescent and senescent cells were washed and incubated in low (0.2%) serum for 48 hours to arrest cell proliferation of the pre-senescent cells. Drugs from the Prestwick Chemical Library, which contains 1120 bio-available compounds in DMSO, were given to the cells at 2.5 μM in media containing 0.2% serum. Forty-eight hours after compound addition, the medium in each well was removed and frozen for assay by ELISA to quantitate the levels of IL-6. The cells, which remained in the wells after the medium was removed, were lysed and ATP levels were measured (ATPlite 1-step assay, Perkin Elmer, MA) to exclude compounds that lowered IL-6 through toxicity (cell death). Experimental wells in each plate were normalized to plate mean or same-plate DMSO controls for the ELISA and ATP assays, respectively.
To identify small molecules that may be potential SASP modulators, a screening strategy that entailed administering compounds to parallel 96-well plates containing human fibroblasts (strain HCA2) that were either quiescent or senescent was developed. The compounds tested comprised the Prestwick Chemical Library, a collection of approximately 1,120 Federal Drug Administration-approved drugs. The compounds were added to duplicate wells at a single concentration (2.5 μM). After 48 hours, the medium from each well was removed, and the cells were lysed. […] Cell lysates were assayed for ATP as a surrogate for cell number.

senescent cells [5] = experiment: Detection and clearance of senescent cells in irradiated p16-3MR transgenic mice (rLUC bioluminescence, SASP biomarker RNA); assay type: in vivo, mouse
Experimental: Briefly, a group of p16-3MR transgenic mice were exposed to whole body ionizing radiation (7 Gy X-ray) and a control group of p16-3MR transgenic mice were mock-irradiated. After three months, the mice were treated with GCV (25 mg/kg) or vehicle only, and then at least two weeks later bioluminescence in tissues was examined after administering the rLUC substrate.

B16 mouse melanoma cells [6] = experiment: B16 melanoma tail-vein injection in irradiated p16-3MR mice (primary tumors and metastases, fLUC bioluminescence); assay type: in vivo
Experimental: Briefly, 10^6 B16 mouse melanoma cells, a highly aggressive cell line that is syngeneic with p16-3MR transgenic mice (C57B16 background), that express firefly luciferase (fLUC, to enable their detection by bioluminescence) were injected into the tail vein of the p16-3MR transgenic mice approximately three months after being either mock irradiated or irradiated, as described in Example 2. Irradiated mice were treated daily with GCV (25 mg/kg) or vehicle only for 7 days, and then 3 days following the last GCV dose, B16 mouse melanoma cells were injected into the mice. B16 mouse melanoma cells first colonize the lung, where they form primary tumors approximately two weeks after injection, and thereafter metastasize to distal tissues to form secondary tumors in, for example, the pancreas, liver and visceral fat. The bioluminescence markers, fLUC and rLUC are distinguishable because the enzymes use different substrates.

[7] = irradiated + GCV, eighteen days after injection

COc1cccc2c1C(=O)c1c(O)c3c(c(O)c1C2=O)C[C@@](O)(C(=O)CO)C[C@@H]3O[C@H]1C[C@H](N)[C@H](O)[C@H](C)O1 [doxorubicin]
mRFP and p16INK4a mRNA in liver, heart, lung, kidney, spleen (senescent cells [1]): higher levels of mRFP and p16INK4a in all tissues
p16INK4a and mRFP expression in skin biopsies (B16 mouse melanoma cells [2]): increased senescence
tumor diameters (B16 mouse melanoma cells [2]): increased tumor sizes
growth/size of subcutaneous B16 melanoma tumors (B16 mouse melanoma cells [2]): stimulated the growth of B16 melanoma cells; also recorded: Tumor growth was increased

C[C@]12CC[C@@H]3c4ccc(O)cc4CC[C@H]3[C@@H]1CC[C@@H]2O [estradiol-17-beta]
IL-6 secretion (ELISA) (IL-6 [3]): suppressed IL-6 secretion

Recombinant IL-1α: recombinant IL-1α protein added to glucocorticoid-treated senescent cells
NF-κB transactivation activity, co-treatment with either glucocorticoid (NF-κB): rescued NF-κB transactivation activity
IL-6 secretion suppressed by corticosterone and cortisol, added recombinant IL-1α (IL-6 [4]): rescued the suppression of IL-6 secretion

Nc1cc(N2CCCCC2)nc(N)[n+]1[O-] [minoxidil]
ATP levels (HCA2 human fibroblasts): without altering ATP levels

Cc1ccc(S(=O)(=O)NC(=O)NN2CC3CCCC3C2)cc1 (stereo not drawn) [gliclazide]
ATP levels (HCA2 human fibroblasts): without altering ATP levels
IL-6 secretion (ELISA) (IL-6 [3]): suppressed IL-6 secretion

C[C@]12CC[C@@H](O)C[C@@H]1CC[C@@H]1[C@@H]2CC[C@]2(C)C(=O)CC[C@@H]12 [androsterone]
ATP levels (HCA2 human fibroblasts): without altering ATP levels
IL-6 secretion (ELISA) (IL-6 [3]): suppressed IL-6 secretion

C[C@]12C=CC(=O)C=C1CC[C@@H]1[C@@H]2C(=O)C[C@@]2(C)[C@H]1CC[C@]2(O)C(=O)CO [prednisone]
ATP levels (HCA2 human fibroblasts): without altering ATP levels
IL-6 secretion (ELISA) (IL-6 [3]): suppressed IL-6 secretion

C#C[C@]1(O)CC[C@H]2[C@@H]3CCC4=CC(=O)CC[C@@H]4[C@H]3CC[C@@]21CC [norgestrel-(−)-D]
IL-6 secretion (ELISA) (IL-6 [3]): suppressed IL-6 secretion

Cc1ccc(S(=O)(=O)NC(=O)NN2CCCCCC2)cc1 [tolazamide]
ATP levels (HCA2 human fibroblasts): without altering ATP levels
IL-6 secretion (ELISA) (IL-6 [3]): suppressed IL-6 secretion

CC(C)(C)NC(=O)[C@H]1CC[C@H]2[C@@H]3CC[C@H]4NC(=O)C=C[C@]4(C)[C@H]3CC[C@]12C [finasteride]
ATP levels (HCA2 human fibroblasts): without altering ATP levels
IL-6 secretion (ELISA) (IL-6 [3]): suppressed IL-6 secretion

CCCNC(=O)NS(=O)(=O)c1ccc(Cl)cc1 [chlorpropamide]
ATP levels (HCA2 human fibroblasts): without altering ATP levels
IL-6 secretion (ELISA) (IL-6 [3]): suppressed IL-6 secretion

Nc1nc(O)c2ncn(COC(CO)CO)c2n1 [GCV, ganciclovir]
rLUC expression levels (bioluminescence in tissues) (senescent cells [5]; irradiated (7 Gy) p16-3MR mice, GCV 25 mg/kg three months after irradiation, lung tissue shown): comparable to unirradiated mice
p16INK4a (p16), IL-6, MMP-3 and mRFP RNA expression levels (senescent cells [5]; irradiated p16-3MR mice treated with GCV): returned p16INK4a (p16), IL-6, MMP-3 and mRFP expression levels to those found in the unirradiated control mice
p16INK4a and mRFP expression in skin biopsies (B16 mouse melanoma cells [2]): low levels of p16INK4a and mRFP expression
tumor diameters (B16 mouse melanoma cells [2]): smaller tumor sizes
growth/size of subcutaneous B16 melanoma tumors (B16 mouse melanoma cells [2]): substantially reduced the size of B16 melanoma tumors; also recorded: much smaller primary tumors
metastatic B16 melanoma cells, Fat (estimated % of total area of fat) (B16 mouse melanoma cells [6]; 18 days after injection): 25%
metastatic B16 melanoma cells, Liver (B16 mouse melanoma cells [6]; 18 days after injection): 7 ± 3.6 nodules
metastatic B16 melanoma cells, Lung (luminescent nodules) (B16 mouse melanoma cells [6]; 18 days after injection, TNTC = too numerous to count): TNTC
B16 cells as detected by luminescence (B16 mouse melanoma cells [6]; irradiated + GCV, day 18): still showed relatively low levels of B16 cells
metastases in distal organs (liver, fat) (B16 mouse melanoma cells [6]; [7]): almost devoid of metastases
primary lung tumors (B16 mouse melanoma cells [6]; [7]): large primary lung tumors were evident
B16 cells as detected by luminescence (B16 mouse melanoma cells [6]; irradiated + GCV, fifteen days after injection): relatively low levels of B16 cells
primary tumors and metastases (B16 mouse melanoma cells [6]; irradiated mice, GCV 25 mg/kg daily for 7 days, 15 days after B16 injection): much smaller primary tumors and many fewer metastases

C/C(=C(\CCOP(=O)(O)O)SC(=O)c1ccccc1)N(C=O)Cc1cnc(C)nc1N [benfotiamine]
ATP levels (HCA2 human fibroblasts): without altering ATP levels
IL-6 secretion (ELISA) (IL-6 [3]): suppressed IL-6 secretion
